Where two headings read alike, the source gives them in different places.
Columns and labels:
AD patients = settings: Cohen et al. 1988; cited from earlier work
LDHκ = LDHκ activity in HeLa cell extracts with SAM added; type: biochemical, human; settings: addition of SAM to the assay mixture
tumor [1] = settings: mouse model, cited from earlier work
RSV-infected cells = settings: cited from earlier work
tumor [2] = settings: Briggs 1959; tumor size attained prior to treatment was not reduced; cited from earlier work
[3] = cited from earlier work
puncture wounds = assay: Mouse puncture wound model, Experiment 3 (about 6 mm wounds, wound area, varied compositions); type: in vivo; settings: comparison of Groups A-D, each compound 0.18 mg/ml
Procedure: This study was similar to Experiment 2, with the following changes. 1. […] 2. […] 3. Test or control compositions were applied daily. Compounds in each test composition were varied 4. N=10 mice per group 5. The each compound in the test compositions was present at a concentration of 0.18 mg/ml. [table]

cultured rat hepatocytes = settings: within 6 hours, cited from earlier work
[4] = system: RNA polymerase II and synthesis of RNA; settings: biotin-deficient rats, within 2 hours after injection of biotin; cited from earlier work
3T3 cells = settings: cited from earlier work
[5] = system: genetically diabetic mice; settings: Reddi et al. 1988; cited from earlier work
[6] = biological target: methyl transferase which acts on MBP; settings: methyl transferase with subunits of 75 and 100 kDa; cited from earlier work
SAM concentrations = settings: Bacchi et al. 1987; cited from earlier work
[7] = system: gastric mucosal stress ulcers; settings: polyamine-stimulated healing, Wang et al.; cited from earlier work
injured skin = settings: compared to injured skin of saline-treated controls, Smith et al. 1989; cited from earlier work
tRNA in tumor cells = settings: tumor-bearing mice; cited from earlier work

C[S+](CC[C@H](N)C(=O)O)C[C@H]1O[C@@H](n2cnc3c(N)ncnc32)[C@H](O)[C@@H]1O (stereo partly drawn) [SAM, S-adenosyl-L-methionine]
membrane fluidity (AD patients): increased of membrane fluidity | symptoms (AD patients): no improvement nor worsening of symptoms | increase in activity of LDHκ (LDHκ): 8-10 fold

Nc1nc2[nH]cc(CN[C@H]3C=C[C@H](O)[C@@H]3O)c2c(=O)[nH]1 [queuine]
effect on tumor (tumor [1]; Katze et al. 1980): shrinkage of the tumor | effect on tumor (tumor [1]; Nishimura et al. 1983, cancer of different type): no effect

NC1(C(=O)O)CCCC1 [cycloleucine]
inhibition of cellular methylation (RSV-infected cells; RSV-infected cells, concentrations used): 95% | RSV-specific mRNAs found (RSV-infected cells; concentrations which inhibit 95% of cellular methylation): only the 35S viral mRNA is found

avidin: the biotin-binding protein avidin
antitumor effects (tumor [2]): further tumor growth was prevented

C[S+](CC[C@H](N)C(=O)O)C[C@H]1O[C@@H](n2cnc3c(N)ncnc32)[C@H](O)[C@@H]1O.[Cl-] (stereo partly drawn) [chloride salt of SAM]
loss of activity per day ([3]; 25° C.): 10 % of activity per day

O=C(O)CCCC[C@@H]1SC[C@@H]2NC(=O)N[C@@H]21 [biotin]
synergy in promoting wound healing (puncture wounds): act synergistically in promoting wound healing | increase in glucokinase (cultured rat hepatocytes; required the presence of insulin): 4 fold | increase in cGMP (cultured rat hepatocytes): 3 fold | increase in RNA polymerase II [4]: 2 fold | increase in the synthesis of RNA [4]: 2 fold | GAPDH increased (3T3 cells; differentiation with biotin): 8 fold | aldolase increased (3T3 cells; differentiation with biotin): 20-30 fold | glycerophosphate dehydrogenase increased (3T3 cells; differentiation with biotin): 2,000 fold | actin, % of total protein after treatment (3T3 cells; from 12.7% prior to treatment with biotin): 3.2 % of total protein | glucose and insulin tolerance [5]: improves glucose and insulin tolerance

Nc1ncnc2c1ncn2[C@@H]1O[C@H](CSCC[C@H](N)C(=O)O)[C@@H](O)[C@H]1O [SAH, S-adenosyl-L-homocysteine]
Ki [6]: 1 µM

C[C@@H]1NC(=O)N[C@@H]1CCCCCC(=O)O [desthiobiotin, reference compound]
antitumor effects (tumor [2]): further tumor growth was prevented

NCCCC(N)(C(=O)O)C(F)F (racemic) [DL-α-difluoromethylornithine]
increase SAM concentrations (SAM concentrations): ≤ 48 fold | healing process of gastric mucosal stress ulcers [7]: significantly inhibited

NC1(C(=O)O)CC1 [ACC, 1-aminocyclopropanecarboxylic acid]
synergy in promoting wound healing (puncture wounds): act synergistically in promoting wound healing

NC(=O)c1cccnc1 [nicotinamide]
capillary density in injured skin (injured skin): increases the capillary density in injured skin significantly

Nc1nc2c(c(CN[C@H]3C=C[C@H](O)[C@@H]3O)cn2[C@@H]2O[C@H](CO)[C@@H](O)[C@H]2O)c(=O)[nH]1 [queuosine]
conversion of G-tRNA to QtRNA in tumor cells (tRNA in tumor cells): complete conversion

C[S+](CC[C@H](N)C(=O)O)C[C@H]1O[C@@H](n2cnc3c(N)ncnc32)[C@H](O)[C@@H]1O.C[S+](CC[C@H](N)C(=O)O)C[C@H]1O[C@@H](n2cnc3c(N)ncnc32)[C@H](O)[C@@H]1O.O=S(=O)([O-])[O-] (stereo partly drawn) [SAM sulfate]
stable for ([3]; 4° C.): 6 months

— patent US6596701B1, “S-adenosyl methionine regulation of metabolic pathways and its use in diagnosis and therapy” (MediQuest Therapeutics, Inc., priority 1995, dated 2003)
